Source: ChEMBL document CHEMBL5696442, “Discovery of type II inhibitors of TGFβ-activated kinase 1 (TAK1) and mitogen-activated protein kinase kinase kinase kinase 2 (MAP4K2)” (J Med Chem, 2015)
The source made the active and inactive calls. The calls are words filed in the database; no cut-off is given here.

Columns and labels:
[1] = test system: Epidermal growth factor receptor (Homo sapiens), P00533 [UNDEFINED MUTATION]; assay: Inhibition of EGFR L747/T751del mutant (unknown origin) at 1 uM by Ambit Kinomescan binding assay relative to control
[2] = target: Non-receptor tyrosine-protein kinase TYK2 (Homo sapiens) (UniProt P29597); assay: Inhibition of TYK2 JH1catalytic domain (unknown origin) at 1 uM by Ambit Kinomescan binding assay relative to control
[3] = target: 1-phosphatidylinositol 3-phosphate 5-kinase (Homo sapiens) (UniProt Q9Y2I7); assay: Inhibition of PIP5K3 ATP labeling site in human A-375 cells at 5 uM by KiNativ Profiling analysis relative to control; assay type: cell-based
[4] = target: Wee1-like protein kinase (Homo sapiens) (UniProt P30291); assay: Inhibition of Wee1 Lys2 labeling site in human A-375 cells at 0.05 uM by KiNativ Profiling analysis relative to control; assay type: cell-based
[5] = target: Platelet-derived growth factor receptor beta (Homo sapiens) (UniProt P09619); assay: Inhibition of PDGFRB (unknown origin) at 1 uM by Ambit Kinomescan binding assay relative to control
[6] = target: Protein kinase C eta type (Homo sapiens) (UniProt P24723); assay: Inhibition of PRKCH (unknown origin) at 1 uM by Ambit Kinomescan binding assay relative to control; values are per cent of control
[7] = target: Casein kinase I isoform epsilon (Homo sapiens) (UniProt P49674); assay: Inhibition of CSNK1E (unknown origin) at 1 uM by Ambit Kinomescan binding assay relative to control
[8] = target: High affinity nerve growth factor receptor (Homo sapiens) (UniProt P04629); assay: Inhibition of TRKA (unknown origin) at 1 uM by Ambit Kinomescan binding assay relative to control
[9] = target: Phosphatidylinositol 4,5-bisphosphate 3-kinase catalytic subunit beta isoform (Homo sapiens) (UniProt P42338); assay: Inhibition of PIK3CB ATP labeling site in human A-375 cells at 5 uM by KiNativ Profiling analysis relative to control; assay type: cell-based
[10] = target: Serine/threonine-protein kinase Nek2 (Homo sapiens) (UniProt P51955); assay: Inhibition of NEK2 (unknown origin) at 1 uM by Ambit Kinomescan binding assay relative to control; values are per cent of control
[11] = target: Proto-oncogene tyrosine-protein kinase Src (Homo sapiens, UniProt P12931); assay: Inhibition of SRC (unknown origin) at 1 uM by Ambit Kinomescan binding assay relative to control
[12] = target: Bone morphogenetic protein receptor type-2 (Homo sapiens) (UniProt Q13873); assay: Inhibition of BMPR2 (unknown origin) at 10 uM by Ambit Kinomescan binding assay
[13] = target: Casein kinase I isoform epsilon (Homo sapiens) (UniProt P49674); assay: Inhibition of CSNK1E (unknown origin) at 10 uM by Ambit Kinomescan binding assay
[14] = target: T1, NUAK family SNF1-like kinase 1 (Homo sapiens) (UniProt O60285); assay: Inhibition of ARK5 (unknown origin) at 10 uM by Ambit Kinomescan binding assay
T1 sequence (whole entry): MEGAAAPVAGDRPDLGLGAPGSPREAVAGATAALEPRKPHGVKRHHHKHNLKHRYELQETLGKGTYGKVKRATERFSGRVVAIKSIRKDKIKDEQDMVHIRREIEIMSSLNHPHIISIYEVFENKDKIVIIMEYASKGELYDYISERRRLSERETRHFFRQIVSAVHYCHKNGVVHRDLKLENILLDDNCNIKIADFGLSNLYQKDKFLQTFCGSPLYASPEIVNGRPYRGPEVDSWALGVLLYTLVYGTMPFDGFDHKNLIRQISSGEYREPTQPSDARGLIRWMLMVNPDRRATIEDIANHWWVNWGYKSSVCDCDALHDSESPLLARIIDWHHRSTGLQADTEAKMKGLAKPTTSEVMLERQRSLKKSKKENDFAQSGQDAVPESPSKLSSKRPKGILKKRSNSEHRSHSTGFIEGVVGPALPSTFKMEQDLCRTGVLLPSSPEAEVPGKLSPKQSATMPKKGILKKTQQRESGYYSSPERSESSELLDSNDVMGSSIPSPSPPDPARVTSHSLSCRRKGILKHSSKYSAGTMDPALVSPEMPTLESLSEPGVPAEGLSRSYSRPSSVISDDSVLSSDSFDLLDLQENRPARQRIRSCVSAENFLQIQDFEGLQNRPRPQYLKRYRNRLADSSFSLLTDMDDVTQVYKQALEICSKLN

[15] = target: Non-receptor tyrosine-protein kinase TYK2 (Homo sapiens) (UniProt P29597); assay: Inhibition of TYK2 domain2 ACT labeling site in human A-375 cells at 0.05 uM by KiNativ Profiling analysis relative to control; assay type: cell-based
[16] = target: Phosphatidylinositol 4-phosphate 5-kinase type-1 alpha (Homo sapiens) (UniProt Q99755); assay: Inhibition of PIP5K1A (unknown origin) at 10 uM by Ambit Kinomescan binding assay
[17] = test system: Proto-oncogene tyrosine-protein kinase receptor Ret (Homo sapiens), P07949 [M918T]; assay: Inhibition of RET M918T mutant (unknown origin) at 10 uM by Ambit Kinomescan binding assay relative to control; values are per cent of control
[18] = target: Misshapen-like kinase 1 (Homo sapiens) (UniProt Q8N4C8); assay: Inhibition of ZC3/MINK Lys2 labeling site in human Huh-7 cells at 1 uM by KiNativ Profiling analysis relative to control; assay type: cell-based
[19] = target: Serine/threonine-protein kinase 32C (Homo sapiens) (UniProt Q86UX6); assay: Inhibition of YANK3 Lys2 labeling site in human Huh-7 cells at 1 uM by KiNativ Profiling analysis relative to control; assay type: cell-based
[20] = target: Cyclin-dependent kinase 6 (Homo sapiens) (UniProt Q00534); assay: Inhibition of CDK6 Lys2 labeling site in human Huh-7 cells at 1 uM by KiNativ Profiling analysis relative to control; assay type: cell-based
[21] = target: Microtubule-associated serine/threonine-protein kinase 1 (Homo sapiens) (UniProt Q9Y2H9); assay: Inhibition of MAST1 Lys2 labeling site in human Huh-7 cells at 1 uM by KiNativ Profiling analysis relative to control
[22] = target: Serine/threonine-protein kinase 24 (Homo sapiens) (UniProt Q9Y6E0); assay: Inhibition of MST3 Lys2 labeling site harbouring DIKAANVLLSEHGEVK in human Huh-7 cell lysate at 1 uM by KiNativ Profiling analysis relative to control; assay type: subcellular
[23] = target: Ribosomal protein S6 kinase alpha-4 (Homo sapiens) (UniProt O75676); assay: Inhibition of MSK2 domain1 ATP Loop labeling site in human Huh-7 cells at 1 uM by KiNativ Profiling analysis relative to control; assay type: cell-based
[24] = target: Mitogen-activated protein kinase kinase kinase 20 (Homo sapiens, UniProt Q9NYL2); assay: Inhibition of ZAK Lys1 labeling site in human Huh-7 cells at 1 uM by KiNativ Profiling analysis relative to control; assay type: cell-based
[25] = target: Ribosomal protein S6 kinase alpha-3 (Homo sapiens) (UniProt P51812); assay: Inhibition of RSK2 domain1 ACT labeling site LTDFGLSKESIDHEK in human Huh-7 cell lysate at 1 uM by KiNativ Profiling analysis relative to control; assay type: subcellular

Non-receptor tyrosine-protein kinase TYK2 (Homo sapiens), sequence (P29597 whole entry, the tested form may be a part): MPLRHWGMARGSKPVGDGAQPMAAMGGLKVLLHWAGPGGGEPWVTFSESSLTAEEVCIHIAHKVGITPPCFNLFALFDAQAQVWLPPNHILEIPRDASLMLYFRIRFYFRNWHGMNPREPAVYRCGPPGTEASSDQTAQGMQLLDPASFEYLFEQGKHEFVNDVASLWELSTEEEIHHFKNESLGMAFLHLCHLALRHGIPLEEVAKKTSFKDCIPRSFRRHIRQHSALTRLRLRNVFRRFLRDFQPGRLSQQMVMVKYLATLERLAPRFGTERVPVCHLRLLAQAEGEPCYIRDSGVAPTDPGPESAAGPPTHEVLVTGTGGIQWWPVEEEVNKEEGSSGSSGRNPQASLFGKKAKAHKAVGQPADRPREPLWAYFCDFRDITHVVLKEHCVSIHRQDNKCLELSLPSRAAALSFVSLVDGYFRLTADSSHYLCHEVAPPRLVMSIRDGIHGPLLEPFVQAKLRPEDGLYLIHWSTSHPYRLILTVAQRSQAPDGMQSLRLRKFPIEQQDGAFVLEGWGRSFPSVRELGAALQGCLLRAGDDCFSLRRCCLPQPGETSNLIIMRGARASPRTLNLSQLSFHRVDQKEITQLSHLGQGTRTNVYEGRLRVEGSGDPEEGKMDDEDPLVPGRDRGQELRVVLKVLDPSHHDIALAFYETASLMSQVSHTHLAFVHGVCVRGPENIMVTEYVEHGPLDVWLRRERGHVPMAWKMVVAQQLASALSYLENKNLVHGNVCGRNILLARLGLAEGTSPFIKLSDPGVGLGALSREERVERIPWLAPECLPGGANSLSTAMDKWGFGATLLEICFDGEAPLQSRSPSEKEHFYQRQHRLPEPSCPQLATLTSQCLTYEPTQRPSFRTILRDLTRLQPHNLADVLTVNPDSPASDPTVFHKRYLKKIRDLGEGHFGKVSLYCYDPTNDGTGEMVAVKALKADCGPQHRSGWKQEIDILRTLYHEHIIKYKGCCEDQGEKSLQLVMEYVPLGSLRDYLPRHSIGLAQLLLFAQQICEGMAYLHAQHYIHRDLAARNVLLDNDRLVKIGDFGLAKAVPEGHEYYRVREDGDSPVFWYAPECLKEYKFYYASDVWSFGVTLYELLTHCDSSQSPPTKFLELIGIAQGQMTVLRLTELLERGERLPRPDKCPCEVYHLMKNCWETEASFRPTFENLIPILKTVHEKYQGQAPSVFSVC
Casein kinase I isoform epsilon (Homo sapiens), sequence (P49674 whole entry, looked up, canonical isoform): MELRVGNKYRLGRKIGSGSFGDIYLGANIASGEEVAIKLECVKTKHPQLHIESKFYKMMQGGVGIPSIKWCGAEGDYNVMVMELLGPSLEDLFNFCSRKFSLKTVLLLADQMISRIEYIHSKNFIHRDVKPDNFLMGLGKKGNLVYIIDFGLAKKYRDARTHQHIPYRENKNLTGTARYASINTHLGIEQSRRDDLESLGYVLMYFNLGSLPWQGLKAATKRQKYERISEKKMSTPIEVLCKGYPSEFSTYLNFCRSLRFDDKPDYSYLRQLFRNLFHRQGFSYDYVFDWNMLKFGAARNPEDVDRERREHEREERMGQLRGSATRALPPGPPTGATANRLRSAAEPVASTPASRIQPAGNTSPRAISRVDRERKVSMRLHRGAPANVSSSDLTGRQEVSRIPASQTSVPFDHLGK
Ribosomal protein S6 kinase alpha-4 (Homo sapiens), sequence (O75676 whole entry, looked up, the tested form may be a part): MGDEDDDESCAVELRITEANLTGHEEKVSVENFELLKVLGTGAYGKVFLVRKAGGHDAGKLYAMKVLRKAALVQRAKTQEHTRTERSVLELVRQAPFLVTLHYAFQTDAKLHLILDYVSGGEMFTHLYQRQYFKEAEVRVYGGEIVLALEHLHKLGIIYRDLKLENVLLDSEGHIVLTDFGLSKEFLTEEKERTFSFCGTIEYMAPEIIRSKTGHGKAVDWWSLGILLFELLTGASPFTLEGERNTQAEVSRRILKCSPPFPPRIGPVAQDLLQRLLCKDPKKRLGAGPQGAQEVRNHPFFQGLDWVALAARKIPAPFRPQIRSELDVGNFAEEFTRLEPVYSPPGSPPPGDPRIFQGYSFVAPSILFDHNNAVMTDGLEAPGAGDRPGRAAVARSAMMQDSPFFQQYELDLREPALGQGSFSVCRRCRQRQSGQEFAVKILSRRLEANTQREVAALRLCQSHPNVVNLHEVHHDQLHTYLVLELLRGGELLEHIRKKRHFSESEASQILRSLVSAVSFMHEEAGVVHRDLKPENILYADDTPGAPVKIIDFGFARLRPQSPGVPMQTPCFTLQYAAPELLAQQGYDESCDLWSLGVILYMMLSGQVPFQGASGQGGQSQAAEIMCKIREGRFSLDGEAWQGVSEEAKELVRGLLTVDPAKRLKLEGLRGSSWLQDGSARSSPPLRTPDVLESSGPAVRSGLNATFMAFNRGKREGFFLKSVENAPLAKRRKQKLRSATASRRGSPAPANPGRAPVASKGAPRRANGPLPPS
Serine/threonine-protein kinase 32C (Homo sapiens), sequence (Q86UX6 whole entry): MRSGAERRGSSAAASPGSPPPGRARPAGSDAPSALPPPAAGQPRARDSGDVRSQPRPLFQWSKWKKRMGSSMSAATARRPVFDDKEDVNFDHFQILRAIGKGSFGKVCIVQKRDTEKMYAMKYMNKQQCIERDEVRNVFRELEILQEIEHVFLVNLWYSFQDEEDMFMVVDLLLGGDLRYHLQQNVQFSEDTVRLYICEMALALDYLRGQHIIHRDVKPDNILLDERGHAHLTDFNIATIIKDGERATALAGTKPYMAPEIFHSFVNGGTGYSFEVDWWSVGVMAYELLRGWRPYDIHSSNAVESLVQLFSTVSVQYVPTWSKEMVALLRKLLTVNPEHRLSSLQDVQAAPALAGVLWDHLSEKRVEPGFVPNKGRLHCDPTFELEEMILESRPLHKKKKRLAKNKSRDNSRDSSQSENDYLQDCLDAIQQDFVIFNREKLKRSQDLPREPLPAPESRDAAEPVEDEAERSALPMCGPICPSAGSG
Serine/threonine-protein kinase Nek2 (Homo sapiens), sequence (P51955 whole entry): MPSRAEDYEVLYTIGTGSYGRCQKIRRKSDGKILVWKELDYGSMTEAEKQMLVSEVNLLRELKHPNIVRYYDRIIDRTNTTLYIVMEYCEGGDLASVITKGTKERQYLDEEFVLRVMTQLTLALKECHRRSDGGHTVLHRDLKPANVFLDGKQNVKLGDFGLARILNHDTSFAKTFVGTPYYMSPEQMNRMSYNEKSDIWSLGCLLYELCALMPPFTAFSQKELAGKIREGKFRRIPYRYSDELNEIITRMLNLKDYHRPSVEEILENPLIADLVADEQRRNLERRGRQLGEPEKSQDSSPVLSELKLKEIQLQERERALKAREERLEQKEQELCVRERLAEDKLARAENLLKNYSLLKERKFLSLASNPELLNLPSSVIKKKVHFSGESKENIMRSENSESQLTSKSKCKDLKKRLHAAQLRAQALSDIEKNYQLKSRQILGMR
Protein kinase C eta type (Homo sapiens), sequence (P24723 whole entry, canonical isoform): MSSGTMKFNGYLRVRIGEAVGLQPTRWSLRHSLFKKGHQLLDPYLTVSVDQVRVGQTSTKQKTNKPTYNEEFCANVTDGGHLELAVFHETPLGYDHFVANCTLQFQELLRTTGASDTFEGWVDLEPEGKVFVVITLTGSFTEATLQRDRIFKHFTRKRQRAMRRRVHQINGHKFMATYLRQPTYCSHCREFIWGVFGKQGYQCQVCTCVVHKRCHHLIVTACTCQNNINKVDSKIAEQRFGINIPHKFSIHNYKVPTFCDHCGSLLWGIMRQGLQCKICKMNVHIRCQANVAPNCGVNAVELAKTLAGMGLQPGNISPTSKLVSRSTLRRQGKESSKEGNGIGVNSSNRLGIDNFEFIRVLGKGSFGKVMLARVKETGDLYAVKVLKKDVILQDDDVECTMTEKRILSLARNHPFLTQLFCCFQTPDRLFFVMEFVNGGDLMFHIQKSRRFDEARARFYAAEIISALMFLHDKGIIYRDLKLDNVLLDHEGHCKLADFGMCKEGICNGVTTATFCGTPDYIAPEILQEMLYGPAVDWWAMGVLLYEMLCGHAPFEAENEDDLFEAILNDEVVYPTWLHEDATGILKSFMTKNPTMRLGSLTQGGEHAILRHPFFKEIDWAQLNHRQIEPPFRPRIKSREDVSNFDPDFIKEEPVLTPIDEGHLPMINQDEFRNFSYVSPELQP
Phosphatidylinositol 4,5-bisphosphate 3-kinase catalytic subunit beta isoform (Homo sapiens), sequence (P42338 whole entry, looked up, canonical isoform): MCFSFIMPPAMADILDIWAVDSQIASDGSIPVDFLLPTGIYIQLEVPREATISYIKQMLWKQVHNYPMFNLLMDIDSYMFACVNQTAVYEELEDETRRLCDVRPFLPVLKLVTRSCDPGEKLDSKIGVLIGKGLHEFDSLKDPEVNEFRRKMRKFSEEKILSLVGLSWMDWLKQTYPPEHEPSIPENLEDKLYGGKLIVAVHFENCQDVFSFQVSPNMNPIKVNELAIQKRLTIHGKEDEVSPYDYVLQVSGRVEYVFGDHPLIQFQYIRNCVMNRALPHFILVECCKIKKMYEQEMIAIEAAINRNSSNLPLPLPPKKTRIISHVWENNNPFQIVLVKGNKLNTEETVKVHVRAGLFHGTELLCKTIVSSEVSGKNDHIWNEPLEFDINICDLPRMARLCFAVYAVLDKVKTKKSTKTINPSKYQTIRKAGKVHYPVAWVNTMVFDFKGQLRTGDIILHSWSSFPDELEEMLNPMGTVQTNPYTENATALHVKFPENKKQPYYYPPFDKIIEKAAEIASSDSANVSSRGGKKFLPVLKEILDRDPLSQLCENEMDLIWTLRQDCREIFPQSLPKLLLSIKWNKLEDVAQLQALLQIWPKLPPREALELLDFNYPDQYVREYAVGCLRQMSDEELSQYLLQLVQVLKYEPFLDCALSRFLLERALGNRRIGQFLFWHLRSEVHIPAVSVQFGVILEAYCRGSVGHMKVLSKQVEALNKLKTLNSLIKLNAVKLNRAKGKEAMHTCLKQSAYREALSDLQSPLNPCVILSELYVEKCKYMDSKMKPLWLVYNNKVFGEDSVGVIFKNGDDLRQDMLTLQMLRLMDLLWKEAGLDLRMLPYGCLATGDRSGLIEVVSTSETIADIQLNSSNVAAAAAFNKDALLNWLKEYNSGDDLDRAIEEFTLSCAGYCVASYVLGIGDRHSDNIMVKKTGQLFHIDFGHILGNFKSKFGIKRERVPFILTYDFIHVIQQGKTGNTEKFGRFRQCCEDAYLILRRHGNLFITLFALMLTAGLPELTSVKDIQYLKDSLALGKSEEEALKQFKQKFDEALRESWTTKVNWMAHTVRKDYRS

CCN1CCN(Cc2ccc(NC(=O)c3ccc(C)c(/C=C/c4cnc5[nH]ccc5c4OC)c3)cc2C(F)(F)F)CC1
inhibition [1]: 1.6%
inhibition [2]: 70%
inhibition [3]: 7.6%
inhibition [4]: 19.2%
inhibition [5]: 0.1%
residual activity [6]: 100%
inhibition [7]: 80%
inhibition [8]: 54%
inhibition [9]: 26.6%
residual activity [10]: 100%
inhibition [11]: 2.8%

CCN1CCN(Cc2ccc(NC(=O)c3ccc(C)c(Oc4ccnc5[nH]ccc45)c3)cc2C(F)(F)F)CC1
inhibition [12]: inactive
inhibition [13]: inactive
inhibition [14]: inactive
inhibition [15]: -4.4%
inhibition [16]: inactive
residual activity [17]: 0%

CNc1cc(Oc2cc(C(=O)Nc3cc(N4CCN(C)CC4)cc(C(F)(F)F)c3)ccc2C)ncn1
inhibition [18]: 9.7%
inhibition [19]: 12.2%
inhibition [20]: 24.4%
inhibition [21]: 53.8%
inhibition [22]: 5.5%
inhibition [23]: 11.5%
inhibition [24]: 13.8%
inhibition [25]: -5%
